Test results from ChEMBL document CHEMBL3885861, “Open TG-GATES”.

Species on record: Rattus norvegicus
Experiment: Open TG-GATES - Regimen: Daily Repeat
Type: toxicity, organism-based, Sprague-Dawley
Design: regimen Daily Repeat, gender Male, age 6 weeks
Details: in vivo, po, route gavage; for APTT / Bas / Eos / Fbg / Hb / Ht / Lym / MCH / MCHC / MCV / Mono / Neu / PT / Plat / RBC / Ret / WBC: tissue Blood; for KIDNEY_L / KIDNEY_R / KIDNEY_TOTAL: tissue Kidney; for LIVER: tissue Liver; for ALT / AST / BUN / CRE / Ca / DBIL / GLC / IP / K / LDH / Na / PL / RALB / TBIL / TC / TG / TP / gamma-GTP / ALP: tissue Plasma
[1] = 15 mg/kg, 72 h, dose level Low, time 3 day
[2] = 15 mg/kg, […], dose level Low, time 7 day
[3] = 15 mg/kg, […], dose level Low, time 14 day
[4] = 15 mg/kg, […], dose level Low, time 28 day

**Q.** How did the TERMINAL_BW [1] turn out when `Oc1ncnc2[nH]ncc12` [ALLOPURINOL] was run?
**A.** 242.3 g

**Q.** And the APTT [1]?
**A.** 16.5 s

**Q.** What about the Bas [1] of the same molecule?
**A.** 0%

**Q.** And the Eos [1]?
**A.** 0.8%

**Q.** And the Fbg [1]?
**A.** 229.2 mg/dL

**Q.** And the Hb [1]?
**A.** 13.9 g/dL

**Q.** What about the Ht [1] of the same molecule?
**A.** 41.8%

**Q.** And the Lym [1]?
**A.** 81.2%

**Q.** What about the MCH [1] of the same molecule?
**A.** 21.5 pg

**Q.** And the MCHC [1]?
**A.** 33.3%

**Q.** And the MCV [1]?
**A.** 64.8 fL

**Q.** What about the Mono [1] of the same molecule?
**A.** 6%

**Q.** What about the Neu [1] of the same molecule?
**A.** 11.4%

**Q.** And the PT [1]?
**A.** 12.1 s

**Q.** And the Plat [1]?
**A.** 91.2 x10_4/uL

**Q.** And the RBC [1]?
**A.** 646.4 x10_4/ul

**Q.** And the Ret [1]?
**A.** 7%

**Q.** What about the WBC [1] of the same molecule?
**A.** 93.9 x10_2/uL

**Q.** And the KIDNEY_L [1]?
**A.** 1 g

**Q.** What about the KIDNEY_R [1] of the same molecule?
**A.** 1 g

**Q.** What about the KIDNEY_TOTAL [1] of the same molecule?
**A.** 2.1 g

**Q.** And the LIVER [1]?
**A.** 11.7 g

**Q.** What about the ALT [1] of the same molecule?
**A.** 33.4 IU/L

**Q.** And the AST [1]?
**A.** 67.4 IU/L

**Q.** And the BUN [1]?
**A.** 18.4 mg/dL

**Q.** And the CRE [1]?
**A.** 0.5 mg/dL

**Q.** What about the Ca [1] of the same molecule?
**A.** 11.3 mg/dL

**Q.** What about the DBIL [1] of the same molecule?
**A.** 0.002 mg/dL

**Q.** And the GLC [1]?
**A.** 193 mg/dL

**Q.** What about the IP [1] of the same molecule?
**A.** 8.4 mg/dL

**Q.** And the K [1]?
**A.** 4.8 meq/L

**Q.** And the LDH [1]?
**A.** 85.2 IU/L

**Q.** What about the Na [1] of the same molecule?
**A.** 139.2 meq/L

**Q.** And the PL [1]?
**A.** 162.4 mg/dL

**Q.** What about the RALB [1] of the same molecule?
**A.** 3.9 g/dL

**Q.** And the TBIL [1]?
**A.** 0.3 mg/dL

**Q.** What about the TC [1] of the same molecule?
**A.** 81.4 mg/dL

**Q.** And the TG [1]?
**A.** 111 mg/dL

**Q.** And the TP [1]?
**A.** 6.1 g/dL

**Q.** What about the gamma-GTP [1] of the same molecule?
**A.** 1.6 IU/L

**Q.** And the TERMINAL_BW [2]?
**A.** 256.8 g

**Q.** What about the TERMINAL_BW [3] of the same molecule?
**A.** 323.2 g

**Q.** What about the TERMINAL_BW [4] of the same molecule?
**A.** 383.9 g

**Q.** What about the APTT [2] of the same molecule?
**A.** 16.7 s

**Q.** What about the Bas [2] of the same molecule?
**A.** 0%

**Q.** And the Eos [2]?
**A.** 1%

**Q.** What about the Fbg [2] of the same molecule?
**A.** 246.6 mg/dL

**Q.** What about the Hb [2] of the same molecule?
**A.** 14.8 g/dL

**Q.** And the Ht [2]?
**A.** 44.6%

**Q.** What about the Lym [2] of the same molecule?
**A.** 83.2%

**Q.** And the MCH [2]?
**A.** 21.1 pg

**Q.** What about the MCHC [2] of the same molecule?
**A.** 33.2%

**Q.** And the MCV [2]?
**A.** 63.5 fL

**Q.** What about the Mono [2] of the same molecule?
**A.** 3.4%

**Q.** And the Neu [2]?
**A.** 12.6%

**Q.** And the PT [2]?
**A.** 11.8 s

**Q.** What about the Plat [2] of the same molecule?
**A.** 112.6 x10_4/uL

**Q.** And the RBC [2]?
**A.** 702.2 x10_4/ul

**Q.** What about the Ret [2] of the same molecule?
**A.** 4.6%

**Q.** And the WBC [2]?
**A.** 108.6 x10_2/uL

**Q.** And the APTT [3]?
**A.** 16.8 s

**Q.** What about the Bas [3] of the same molecule?
**A.** 0%

**Q.** And the Eos [3]?
**A.** 0.8%

**Q.** And the Fbg [3]?
**A.** 242.8 mg/dL

**Q.** What about the Hb [3] of the same molecule?
**A.** 14.6 g/dL

**Q.** What about the Ht [3] of the same molecule?
**A.** 44%

**Q.** What about the Lym [3] of the same molecule?
**A.** 81%

**Q.** What about the MCH [3] of the same molecule?
**A.** 20.5 pg

**Q.** What about the MCHC [3] of the same molecule?
**A.** 33.2%

**Q.** What about the MCV [3] of the same molecule?
**A.** 61.7 fL

**Q.** And the Mono [3]?
**A.** 4.8%

**Q.** And the Neu [3]?
**A.** 13.4%

**Q.** And the PT [3]?
**A.** 11.7 s

**Q.** And the Plat [3]?
**A.** 111.9 x10_4/uL

**Q.** What about the RBC [3] of the same molecule?
**A.** 714 x10_4/ul

**Q.** And the Ret [3]?
**A.** 4.4%

**Q.** And the APTT [4]?
**A.** 16.6 s

**Q.** And the Bas [4]?
**A.** 0%

**Q.** And the Eos [4]?
**A.** 1%

**Q.** What about the Fbg [4] of the same molecule?
**A.** 225.8 mg/dL

**Q.** And the Hb [4]?
**A.** 15.4 g/dL

**Q.** And the Ht [4]?
**A.** 46%

**Q.** And the Lym [4]?
**A.** 83.8%

**Q.** What about the MCH [4] of the same molecule?
**A.** 19.4 pg

**Q.** What about the MCHC [4] of the same molecule?
**A.** 33.6%

**Q.** What about the MCV [4] of the same molecule?
**A.** 57.8 fL

**Q.** And the Mono [4]?
**A.** 2.8%

**Q.** And the Neu [4]?
**A.** 12.4%

**Q.** And the PT [4]?
**A.** 12.1 s

**Q.** What about the RBC [4] of the same molecule?
**A.** 795.8 x10_4/ul

**Q.** What about the Ret [4] of the same molecule?
**A.** 2.4%

**Q.** What about the WBC [4] of the same molecule?
**A.** 167 x10_2/uL

**Q.** And the KIDNEY_L [2]?
**A.** 1.2 g

**Q.** And the KIDNEY_R [2]?
**A.** 1.2 g

**Q.** What about the KIDNEY_TOTAL [2] of the same molecule?
**A.** 2.3 g

**Q.** What about the KIDNEY_L [3] of the same molecule?
**A.** 1.3 g

**Q.** What about the KIDNEY_R [3] of the same molecule?
**A.** 1.3 g

**Q.** What about the KIDNEY_TOTAL [3] of the same molecule?
**A.** 2.6 g

**Q.** What about the KIDNEY_L [4] of the same molecule?
**A.** 1.4 g

**Q.** And the KIDNEY_R [4]?
**A.** 1.4 g

**Q.** And the KIDNEY_TOTAL [4]?
**A.** 2.9 g

**Q.** What about the LIVER [2] of the same molecule?
**A.** 11.7 g

**Q.** What about the LIVER [3] of the same molecule?
**A.** 15.3 g

**Q.** And the LIVER [4]?
**A.** 16.6 g

**Q.** And the ALP [2]?
**A.** 753 IU/L

**Q.** What about the ALT [2] of the same molecule?
**A.** 25.2 IU/L

**Q.** And the AST [2]?
**A.** 56.6 IU/L

**Q.** What about the BUN [2] of the same molecule?
**A.** 21.6 mg/dL

**Q.** What about the CRE [2] of the same molecule?
**A.** 0.6 mg/dL

**Q.** And the Ca [2]?
**A.** 11.3 mg/dL

**Q.** What about the DBIL [2] of the same molecule?
**A.** 0.012 mg/dL

**Q.** What about the GLC [2] of the same molecule?
**A.** 192.6 mg/dL

**Q.** And the IP [2]?
**A.** 8.6 mg/dL

**Q.** And the K [2]?
**A.** 4.5 meq/L

**Q.** What about the Na [2] of the same molecule?
**A.** 137.8 meq/L

**Q.** And the PL [2]?
**A.** 156 mg/dL

**Q.** And the RALB [2]?
**A.** 4.2 g/dL

**Q.** What about the TBIL [2] of the same molecule?
**A.** 0.3 mg/dL

**Q.** And the TC [2]?
**A.** 81.2 mg/dL

**Q.** And the TG [2]?
**A.** 85.2 mg/dL

**Q.** What about the TP [2] of the same molecule?
**A.** 6.2 g/dL

**Q.** And the gamma-GTP [2]?
**A.** 2.4 IU/L

**Q.** And the ALP [3]?
**A.** 823.2 IU/L

**Q.** And the ALT [3]?
**A.** 27.2 IU/L

**Q.** And the AST [3]?
**A.** 56.8 IU/L

**Q.** What about the BUN [3] of the same molecule?
**A.** 19.4 mg/dL

**Q.** What about the CRE [3] of the same molecule?
**A.** 0.6 mg/dL

**Q.** What about the DBIL [3] of the same molecule?
**A.** 0 mg/dL

**Q.** What about the GLC [3] of the same molecule?
**A.** 185.4 mg/dL

**Q.** What about the IP [3] of the same molecule?
**A.** 7.5 mg/dL

**Q.** What about the K [3] of the same molecule?
**A.** 4.4 meq/L

**Q.** And the LDH [3]?
**A.** 74.8 IU/L

**Q.** What about the Na [3] of the same molecule?
**A.** 138.8 meq/L

**Q.** And the PL [3]?
**A.** 158.6 mg/dL

**Q.** What about the RALB [3] of the same molecule?
**A.** 3.9 g/dL

**Q.** What about the TBIL [3] of the same molecule?
**A.** 0.2 mg/dL

**Q.** What about the TC [3] of the same molecule?
**A.** 69.8 mg/dL

**Q.** And the TG [3]?
**A.** 161.6 mg/dL

**Q.** And the TP [3]?
**A.** 6.2 g/dL

**Q.** And the gamma-GTP [3]?
**A.** 2 IU/L

**Q.** What about the ALP [4] of the same molecule?
**A.** 525.8 IU/L

**Q.** And the ALT [4]?
**A.** 29.4 IU/L

**Q.** And the AST [4]?
**A.** 59.2 IU/L

**Q.** What about the BUN [4] of the same molecule?
**A.** 20.6 mg/dL

**Q.** And the CRE [4]?
**A.** 0.6 mg/dL

**Q.** What about the Ca [4] of the same molecule?
**A.** 11 mg/dL

**Q.** What about the DBIL [4] of the same molecule?
**A.** 0.014 mg/dL

**Q.** What about the GLC [4] of the same molecule?
**A.** 188.4 mg/dL

**Q.** And the IP [4]?
**A.** 6.9 mg/dL

**Q.** What about the K [4] of the same molecule?
**A.** 4.8 meq/L

**Q.** And the LDH [4]?
**A.** 74.4 IU/L

**Q.** And the Na [4]?
**A.** 139.6 meq/L

**Q.** And the PL [4]?
**A.** 153.4 mg/dL

**Q.** And the RALB [4]?
**A.** 4.1 g/dL

**Q.** And the TBIL [4]?
**A.** 0.3 mg/dL

**Q.** And the TC [4]?
**A.** 70 mg/dL

**Q.** What about the TG [4] of the same molecule?
**A.** 160.6 mg/dL

**Q.** What about the TP [4] of the same molecule?
**A.** 6.6 g/dL

**Q.** And the gamma-GTP [4]?
**A.** 2.8 IU/L

**Q.** And the TERMINAL_BW (50 mg/kg, 72 h, dose level Middle, time 3 day)?
**A.** 239.5 g
